Test results: patent US6297241A, “Carbamate derivatives of diaryl 1,3,4-oxadiazolone” (Bristol-Myers Squibb Company, priority 2000, dated 2001)

Tests used:
[1] = Rapid screen of prodrug hydrolysis and drug release in plasma (HPLC); format: in vitro ADME; conditions: fresh rat plasma, 37° C., 10 μg/mL, stock in PEG-400, analysis 5 minutes after incubation
Experimental: A rapid screen to determine the ability of prodrugs to hydrolyze and release the drug (compound of Example 1) is conducted as follows. A 1 mg/mL stock solution of the prodrug is prepared in distilled water or acetonitrile or PEG-400. Plasma from freshly collected rat or human blood is used in this assay. To 1 mL of plasma at 37° C. was added 10 μL of stock solution of prodrug and mixed gently. Immediately after the mixing, 100 μL of plasma was removed and quenched with 300 μL of acetonitrile (Zero time sample). Samples were also obtained at 30 minutes and quenched immediately. The quenched samples were centrifuged to obtain a clear supernatant for analysis. The stock solution, T=0 and T=30 samples were analyzed by a HPLC assay that separates the drug from the prodrug. Based on the relative peak areas of prodrug and drug in these samples, different prodrugs are characterized as fast, moderate and slow release agents. For example, in this model, the compound of Example 2 was dissolved in PEG-400 at a concentration of 1 mg/mL and incubated at 10 μg/mL in fresh rat plasma at 37° C.

[2] = test system: cloned mammalian (mSlo or hSlo) BK channels; test: Increase of cloned BK-mediated outward current in Xenopus oocytes, two-electrode voltage clamp; format: cell-based; conditions: 1 μM; at least 5 oocytes; mSlo or hSlo expressed in Xenopus oocytes
cortical infarct volume = test: Focal stroke model: permanent left MCA and CCA occlusion, temporary right CCA occlusion; format: in vivo; conditions: Wistar rat; 10 μg/kg i.v. single bolus two hours after MCA occlusion; measured 24 hours after MCAO
Experimental: To determine the ability of the compounds of the present invention to reduce cell loss resulting from neuronal ischemia, a standard focal cerebral ischemia is induced by permanent occlusion of the left middle cerebral artery (MCA) and common carotid artery (CCA) with one hour occlusion of the right CCA in the Wistar rat. The surgeries are performed using the sub-temporal approach of A. Tamura, et al., J. Cereb. Blood Flow Metab., 1, pp. 53-60, (1981) and its modifications [K. Osborne, et al., J. Neurol Neurosurg. Psychiatry, 50, pp. 402-410 (1987) and S. Menzies, et al., Neurosurgery, 31, pp.100-107, (1992).]
The compound of Example 1 was evaluated in the focal stroke model involving permanent occlusion of the left MCA (MCAO) and CCA (CCAO) and temporary occlusion of the right CCA in the Wistar rat. This procedure results in a reliably large neocortical infarct volume that is measured by means of vital dye exclusion in serial slices through the brain 24 hours after MCAO. In the present test, compounds were administered using an i.v. or i.p. route of administration two hours after occlusion.

[3] = test system: non-BK native currents in the oocytes; test: Effect on non-BK native currents (current remaining with IBTX) in oocytes; conditions: at the tested concentration; IBTX 50 nM

Compound: O=C(O)CC(NC(=O)Oc1ccc(Cl)cc1Cn1nc(-c2ccc(C(F)(F)F)cc2)oc1=O)C(=O)O (stereo not shown) [Example 2, N-[[4-Chloro-2-[[5-[4-(trifluoromethyl)phenyl]-2. 3-dihydro-2-oxo-1,3,4-oxadiazol-3-yl]methyl]phenoxy]carbonyl]aspartic acid]
- Conversion of prodrug to the drug (compound of Example 1) in plasma [1]: conversion of the compound of Example 2 to the compound of Example 1

Compound: O=c1oc(-c2ccc(C(F)(F)F)cc2)nn1Cc1cc(Cl)ccc1O [Example 1]
- BK current as % of control of IBTX-sensitive current [2]: 126%
- Reduction of cortical infarct volume vs vehicle-treated (water) control (cortical infarct volume): about 18%
- Effect on non-BK native currents in the oocytes [3]: did not effect non-BK native currents
